Measurements published in patent publication US20260356819A1, “OXOISOINDOLINYL-SUBSTITUTED […] DERIVATIVE AND USE THEREOF” (GLUETACS THERAPEUTICS (SHANGHAI) CO., LTD., priority 2023, published 2026).

Experiments:
Assay type in all cases: cell-based
Conditions in all cases: compounds at 50 nM and 500 nM
WEE1 = molecular target: T1, WEE1 (Homo sapiens, UniProt P30291+Q96SW2); assay: Western blot degradation of WEE1 in hPBMCs (24 h)
T1 construct: The supernatant was aspirated as the extracted total cell protein; endogenous in cells; host or cells: human peripheral blood mononuclear cells (hPBMCs)
Method in brief: (§1)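 Degradation in primary human PBMCs after 24 h compound exposure at 50 and 500 nM. Western blot band intensities, normalised to an internal control protein, expressed as % protein remaining relative to DMSO.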

IKZF1 = molecular target: T2, IKZF1 (Homo sapiens, UniProt Q13422+Q96SW2); assay: Western blot degradation of IKZF1 in hPBMCs (24 h)
T2 construct: The supernatant was aspirated as the extracted total cell protein; endogenous in cells; host or cells: human peripheral blood mononuclear cells (hPBMCs)
Method in brief: as §1

GSPT1 = molecular target: T3, GSPT1 (Homo sapiens, UniProt P15170+Q96SW2); assay: Western blot degradation of GSPT1 in hPBMCs (24 h)
T3 construct: The supernatant was aspirated as the extracted total cell protein; endogenous in cells; host or cells: human peripheral blood mononuclear cells (hPBMCs)
Method in brief: as §1

CK1α = molecular target: T4, CK1α (Homo sapiens, UniProt P48729+Q96SW2); assay: Western blot degradation of CK1α in hPBMCs (24 h)
T4 construct: The supernatant was aspirated as the extracted total cell protein; endogenous in cells; host or cells: human peripheral blood mononuclear cells (hPBMCs)
Method in brief: as §1

IKZF2 = molecular target: T5, IKZF2 (Homo sapiens, UniProt Q96SW2+Q9UKS7); assay: Western blot degradation of IKZF2 in hPBMCs (24 h)
T5 construct: The supernatant was aspirated as the extracted total cell protein; endogenous in cells; host or cells: human peripheral blood mononuclear cells (hPBMCs)
Method in brief: as §1

IKZF3 = molecular target: T6, IKZF3 (Homo sapiens, UniProt Q96SW2+Q9UKT9); assay: Western blot degradation of IKZF3 in hPBMCs (24 h)
T6 construct: The supernatant was aspirated as the extracted total cell protein; endogenous in cells; host or cells: human peripheral blood mononuclear cells (hPBMCs)
Method in brief: as §1

T1 sequence (P30291 whole entry): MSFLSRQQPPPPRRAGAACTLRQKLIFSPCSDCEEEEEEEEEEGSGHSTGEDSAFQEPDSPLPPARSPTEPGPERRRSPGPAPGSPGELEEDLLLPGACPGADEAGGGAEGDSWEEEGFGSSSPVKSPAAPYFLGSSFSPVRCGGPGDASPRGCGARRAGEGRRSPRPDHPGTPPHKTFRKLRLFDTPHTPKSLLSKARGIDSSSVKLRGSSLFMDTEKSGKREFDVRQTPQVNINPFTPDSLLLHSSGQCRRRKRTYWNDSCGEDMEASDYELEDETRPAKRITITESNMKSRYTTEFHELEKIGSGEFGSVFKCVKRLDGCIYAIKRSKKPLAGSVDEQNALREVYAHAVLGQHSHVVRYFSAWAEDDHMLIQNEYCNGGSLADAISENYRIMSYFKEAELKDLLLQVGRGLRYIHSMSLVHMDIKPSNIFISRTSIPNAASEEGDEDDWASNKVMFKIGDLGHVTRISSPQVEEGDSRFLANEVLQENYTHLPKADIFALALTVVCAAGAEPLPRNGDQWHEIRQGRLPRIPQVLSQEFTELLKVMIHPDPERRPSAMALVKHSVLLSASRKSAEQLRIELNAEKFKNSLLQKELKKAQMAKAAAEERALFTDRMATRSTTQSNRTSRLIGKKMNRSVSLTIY
T1 sequence (Q96SW2 whole entry): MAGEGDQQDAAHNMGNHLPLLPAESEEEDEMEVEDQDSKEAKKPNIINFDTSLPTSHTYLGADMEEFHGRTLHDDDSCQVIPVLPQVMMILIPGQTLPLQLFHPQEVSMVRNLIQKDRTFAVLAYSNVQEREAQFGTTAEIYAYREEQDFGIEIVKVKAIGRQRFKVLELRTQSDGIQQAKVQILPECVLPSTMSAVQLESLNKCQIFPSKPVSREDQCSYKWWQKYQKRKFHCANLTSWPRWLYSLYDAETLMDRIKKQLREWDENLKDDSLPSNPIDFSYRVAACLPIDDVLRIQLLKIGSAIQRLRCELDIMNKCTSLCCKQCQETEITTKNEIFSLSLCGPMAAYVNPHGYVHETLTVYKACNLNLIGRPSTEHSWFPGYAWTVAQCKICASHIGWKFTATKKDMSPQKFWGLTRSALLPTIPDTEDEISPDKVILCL
T1 sequence (Q16531 whole entry partner): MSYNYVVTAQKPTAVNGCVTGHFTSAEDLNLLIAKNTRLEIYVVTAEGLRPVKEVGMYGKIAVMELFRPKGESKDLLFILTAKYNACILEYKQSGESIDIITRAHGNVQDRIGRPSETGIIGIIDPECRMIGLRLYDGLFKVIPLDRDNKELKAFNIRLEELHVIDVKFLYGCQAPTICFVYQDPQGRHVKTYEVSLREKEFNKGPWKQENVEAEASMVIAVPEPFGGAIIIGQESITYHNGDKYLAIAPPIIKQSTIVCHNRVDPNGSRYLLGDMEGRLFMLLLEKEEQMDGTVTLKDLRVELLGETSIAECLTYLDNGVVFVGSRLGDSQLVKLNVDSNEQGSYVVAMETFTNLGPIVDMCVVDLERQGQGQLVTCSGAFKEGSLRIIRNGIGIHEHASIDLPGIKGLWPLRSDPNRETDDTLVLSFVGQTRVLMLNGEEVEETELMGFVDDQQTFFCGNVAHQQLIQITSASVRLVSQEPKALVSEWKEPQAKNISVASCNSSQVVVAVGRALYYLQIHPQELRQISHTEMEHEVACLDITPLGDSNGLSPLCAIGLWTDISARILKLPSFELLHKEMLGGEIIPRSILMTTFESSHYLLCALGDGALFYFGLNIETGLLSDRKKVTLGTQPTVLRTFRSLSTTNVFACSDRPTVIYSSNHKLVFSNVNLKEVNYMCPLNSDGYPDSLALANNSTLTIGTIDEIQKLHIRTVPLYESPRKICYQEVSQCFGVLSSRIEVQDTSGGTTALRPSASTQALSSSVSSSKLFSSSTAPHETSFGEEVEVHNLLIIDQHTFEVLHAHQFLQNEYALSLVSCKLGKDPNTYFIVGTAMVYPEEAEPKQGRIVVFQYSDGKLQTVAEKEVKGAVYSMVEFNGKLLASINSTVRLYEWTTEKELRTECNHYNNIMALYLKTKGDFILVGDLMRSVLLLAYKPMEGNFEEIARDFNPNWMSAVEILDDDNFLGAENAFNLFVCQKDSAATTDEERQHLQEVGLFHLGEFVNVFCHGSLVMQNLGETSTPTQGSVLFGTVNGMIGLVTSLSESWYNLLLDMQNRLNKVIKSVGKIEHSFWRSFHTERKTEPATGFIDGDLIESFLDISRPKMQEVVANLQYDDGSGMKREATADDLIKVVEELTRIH
T2 sequence (Q13422 whole entry): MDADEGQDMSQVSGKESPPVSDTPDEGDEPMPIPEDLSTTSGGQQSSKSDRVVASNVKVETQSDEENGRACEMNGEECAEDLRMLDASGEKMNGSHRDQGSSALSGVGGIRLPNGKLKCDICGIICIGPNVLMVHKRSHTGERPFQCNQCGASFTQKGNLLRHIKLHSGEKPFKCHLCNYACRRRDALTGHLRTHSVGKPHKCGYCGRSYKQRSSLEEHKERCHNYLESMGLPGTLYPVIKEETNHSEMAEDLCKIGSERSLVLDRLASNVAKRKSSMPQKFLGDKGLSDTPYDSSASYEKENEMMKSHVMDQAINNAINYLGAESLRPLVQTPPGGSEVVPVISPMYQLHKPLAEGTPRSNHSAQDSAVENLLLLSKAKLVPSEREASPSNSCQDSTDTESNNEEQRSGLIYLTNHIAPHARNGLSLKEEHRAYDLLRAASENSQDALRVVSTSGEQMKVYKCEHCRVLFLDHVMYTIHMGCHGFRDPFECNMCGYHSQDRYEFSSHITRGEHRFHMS
T2 sequence (Q96SW2 whole entry): as the sequence (Q96SW2 whole entry) above
T2 sequence (Q16531 whole entry partner): as the sequence (Q16531 whole entry partner) above
T5 sequence (Q9UKS7 whole entry): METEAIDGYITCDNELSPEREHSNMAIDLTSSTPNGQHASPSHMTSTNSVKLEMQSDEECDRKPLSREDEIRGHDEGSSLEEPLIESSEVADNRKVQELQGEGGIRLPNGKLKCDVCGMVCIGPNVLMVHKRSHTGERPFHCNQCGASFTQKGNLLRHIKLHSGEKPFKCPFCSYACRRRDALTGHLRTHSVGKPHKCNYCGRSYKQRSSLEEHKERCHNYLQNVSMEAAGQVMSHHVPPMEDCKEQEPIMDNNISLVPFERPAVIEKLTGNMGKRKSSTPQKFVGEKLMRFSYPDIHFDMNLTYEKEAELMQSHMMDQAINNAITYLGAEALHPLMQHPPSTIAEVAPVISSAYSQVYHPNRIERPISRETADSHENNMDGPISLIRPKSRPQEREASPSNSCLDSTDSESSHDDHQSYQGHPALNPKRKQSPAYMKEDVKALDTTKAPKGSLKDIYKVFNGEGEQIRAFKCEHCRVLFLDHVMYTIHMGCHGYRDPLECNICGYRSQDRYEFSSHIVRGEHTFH
T5 sequence (Q96SW2 whole entry): as the sequence (Q96SW2 whole entry) above
T5 sequence (Q16531 whole entry partner): as the sequence (Q16531 whole entry partner) above
T4 sequence (P48729 whole entry): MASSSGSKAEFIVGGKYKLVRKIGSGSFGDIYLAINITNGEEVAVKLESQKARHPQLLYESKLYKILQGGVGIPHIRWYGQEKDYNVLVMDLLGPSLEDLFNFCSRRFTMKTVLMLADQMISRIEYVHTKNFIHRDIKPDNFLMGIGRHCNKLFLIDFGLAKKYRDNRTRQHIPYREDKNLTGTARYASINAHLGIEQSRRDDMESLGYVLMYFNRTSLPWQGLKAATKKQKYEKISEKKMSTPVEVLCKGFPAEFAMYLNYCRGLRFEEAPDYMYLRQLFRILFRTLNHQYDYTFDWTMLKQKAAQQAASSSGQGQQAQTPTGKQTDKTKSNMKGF
T4 sequence (Q96SW2 whole entry): as the sequence (Q96SW2 whole entry) above
T4 sequence (Q16531 whole entry partner): as the sequence (Q16531 whole entry partner) above
T6 sequence (Q9UKT9 whole entry): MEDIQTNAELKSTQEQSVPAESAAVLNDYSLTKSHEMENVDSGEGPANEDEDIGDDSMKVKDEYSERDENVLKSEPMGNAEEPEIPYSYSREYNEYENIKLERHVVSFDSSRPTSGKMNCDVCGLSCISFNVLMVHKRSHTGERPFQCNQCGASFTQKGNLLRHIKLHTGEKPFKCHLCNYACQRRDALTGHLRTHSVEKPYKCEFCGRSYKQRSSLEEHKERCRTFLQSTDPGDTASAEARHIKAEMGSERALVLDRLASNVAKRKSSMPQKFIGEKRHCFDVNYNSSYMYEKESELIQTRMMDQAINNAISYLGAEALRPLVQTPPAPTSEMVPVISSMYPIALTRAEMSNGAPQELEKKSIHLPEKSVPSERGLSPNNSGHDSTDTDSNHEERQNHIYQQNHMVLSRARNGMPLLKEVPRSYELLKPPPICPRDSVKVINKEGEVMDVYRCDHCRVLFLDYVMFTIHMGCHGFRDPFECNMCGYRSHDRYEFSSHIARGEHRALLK
T6 sequence (Q96SW2 whole entry): as the sequence (Q96SW2 whole entry) above
T6 sequence (Q16531 whole entry partner): as the sequence (Q16531 whole entry partner) above

| SMILES | WEE1 substrate protein remaining % (WEE1) | IKZF1 substrate protein remaining % (IKZF1) | GSPT1 substrate protein remaining % (GSPT1) | CK1α substrate protein remaining % (CK1α) | IKZF2 substrate protein remaining % (IKZF2) | IKZF3 substrate protein remaining % (IKZF3) |
| --- | --- | --- | --- | --- | --- | --- |
| Cc1cc(N2CCN(Cc3ccc4c(c3)CN(N3CCC(=O)NC3=O)C4=O)CC2)ccn1 [GT-05438, 1-(5-((4-(2-methylpyridin-4-yl)piperazin-1-yl)methyl)-1-oxoisoindolin-2-yl)dihydropyrimidine-2,4(1H,3H)-dione] | A (0% ≤ substrate protein remaining % ≤80%) | A (0% ≤ substrate protein remaining % ≤80%) | A (0% ≤ substrate protein remaining % ≤80%) | A (0% ≤ substrate protein remaining % ≤80%) | B (80%< substrate protein remaining % ≤100%) | A (0% ≤ substrate protein remaining % ≤80%) |
| O=C1CCN(N2Cc3cc(CN4CCN(c5ccncc5F)CC4)ccc3C2=O)C(=O)N1 [GT-05697, 1-(5-((4-(3-fluoropyridin-4-yl)piperazin-1-yl)methyl)-1-oxoisoindolin-2-yl)dihydropyrimidine-2,4(1H,3H)-dione] | A (0% ≤ substrate protein remaining % ≤80%) | B (80%< substrate protein remaining % ≤100%) | A (0% ≤ substrate protein remaining % ≤80%) | B (80%< substrate protein remaining % ≤100%) | B (80%< substrate protein remaining % ≤100%) | B (80%< substrate protein remaining % ≤100%) |
| O=C1CCN(N2Cc3cc(CN4CCN(C(c5ccccc5)c5cccnc5)CC4)ccc3C2=O)C(=O)N1 (stereo not drawn) [GT-06376, 1-(1-oxo-5-((4-(phenyl(pyridin-3-yl)methyl)piperazin-1-yl)methyl)isoindolin-2-yl)dihydropyrimidine-2,4(1H,3H)-dione] | A (0% ≤ substrate protein remaining % ≤80%) | B (80%< substrate protein remaining % ≤100%) | A (0% ≤ substrate protein remaining % ≤80%) | B (80%< substrate protein remaining % ≤100%) | A (0% ≤ substrate protein remaining % ≤80%) | B (80%< substrate protein remaining % ≤100%) |
| O=C1CCN(N2C(=O)c3ccc(CN4CCN(C(c5ccccc5)c5cccnc5)CC4)cc3C2=O)C(=O)N1 (stereo not drawn) [GT-06377, 2-(2,4-dioxotetrahydropyrimidin-1(2H)-yl)-5-((4-(phenyl(pyridin-3-yl)methyl)piperazin-1-yl)methyl)isoindoline-1,3-dione] | A (0% ≤ substrate protein remaining % ≤80%) | B (80%< substrate protein remaining % ≤100%) | B (80%< substrate protein remaining % ≤100%) | B (80%< substrate protein remaining % ≤100%) | A (0% ≤ substrate protein remaining % ≤80%) | B (80%< substrate protein remaining % ≤100%) |
| O=C1CCN(N2C(=O)c3ccc(CN4CCN(C(c5ccccc5)c5ccncc5)CC4)cc3C2=O)C(=O)N1 (stereo not drawn) [GT-06378, 2-(2,4-dioxotetrahydropyrimidin-1(2H)-yl)-5-((4-(phenyl(pyridin-4-yl)methyl)piperazin-1-yl)methyl)isoindoline-1,3-dione] | A (0% ≤ substrate protein remaining % ≤80%) | B (80%< substrate protein remaining % ≤100%) | B (80%< substrate protein remaining % ≤100%) | B (80%< substrate protein remaining % ≤100%) | A (0% ≤ substrate protein remaining % ≤80%) | A (0% ≤ substrate protein remaining % ≤80%) |
| O=C1CCN(N2C(=O)c3ccc(CN4CCN(C(c5ccccn5)c5ccccn5)CC4)cc3C2=O)C(=O)N1 [GT-06379, 5-((4-(di(pyridin-2-yl)methyl)piperazin-1-yl)methyl)-2-(2,4-dioxotetrahydropyrimidin-1(2H)-yl)isoindoline-1,3-dione] | A (0% ≤ substrate protein remaining % ≤80%) | B (80%< substrate protein remaining % ≤100%) | A (0% ≤ substrate protein remaining % ≤80%) | B (80%< substrate protein remaining % ≤100%) | A (0% ≤ substrate protein remaining % ≤80%) | A (0% ≤ substrate protein remaining % ≤80%) |
| CC1(C)CN(Cc2ccc3c(c2)C(=O)N(N2CCC(=O)NC2=O)C3=O)CCN1C(c1ccccc1)c1ccccc1 [GT-06385, 5-((4-benzhydryl-3,3-dimethylpiperazin-1-yl)methyl)-2-(2,4-dioxotetrahydropyrimidin-1(2H)-yl)isoindoline-1,3-dione] | A (0% ≤ substrate protein remaining % ≤80%) | B (80%< substrate protein remaining % ≤100%) | A (0% ≤ substrate protein remaining % ≤80%) | B (80%< substrate protein remaining % ≤100%) | B (80%< substrate protein remaining % ≤100%) | A (0% ≤ substrate protein remaining % ≤80%) |
| O=C1CCN(N2Cc3cc(CN4CCC(c5nccc(Cl)c5Cl)CC4)ccc3C2=O)C(=O)N1 [GT-06388, 1-(5-((4-(3,4-dichloropyridin-2-yl)piperidin-1-yl)methyl)-1-oxoisoindolin-2-yl)dihydropyrimidine-2,4(1H,3H)-dione] | B (80%< substrate protein remaining % ≤100%) | B (80%< substrate protein remaining % ≤100%) | A (0% ≤ substrate protein remaining % ≤80%) | B (80%< substrate protein remaining % ≤100%) | B (80%< substrate protein remaining % ≤100%) | B (80%< substrate protein remaining % ≤100%) |
| O=C1CCN(N2Cc3cc(CN4CCC(c5ccnc(Cl)c5Cl)CC4)ccc3C2=O)C(=O)N1 [GT-06390, 1-(5-((4-(2,3-dichloropyridin-4-yl)piperidin-1-yl)methyl)-1-oxoisoindolin-2-yl)dihydropyrimidine-2,4(1H,3H)-dione] | B (80%< substrate protein remaining % ≤100%) | B (80%< substrate protein remaining % ≤100%) | A (0% ≤ substrate protein remaining % ≤80%) | B (80%< substrate protein remaining % ≤100%) | B (80%< substrate protein remaining % ≤100%) | B (80%< substrate protein remaining % ≤100%) |
| O=C1CCN(N2Cc3cc(CN4CC=C(c5cncc(Cl)c5)CC4)ccc3C2=O)C(=O)N1 [GT-06394, 1-(5-((5-chloro-3′,6′-dihydro-[3,4′-bipyridin]-1′ (2′H)-yl)methyl)-1-oxoisoindolin-2-yl)dihydropyrimidine-2,4(1H,3H)-dione] | B (80%< substrate protein remaining % ≤100%) | B (80%< substrate protein remaining % ≤100%) | A (0% ≤ substrate protein remaining % ≤80%) | A (0% ≤ substrate protein remaining % ≤80%) | A (0% ≤ substrate protein remaining % ≤80%) | B (80%< substrate protein remaining % ≤100%) |
| O=C1CCN(N2Cc3cc(CN4CC=C(c5ncccc5F)CC4)ccc3C2=O)C(=O)N1 [GT-06395, 1-(5-((3-fluoro-3′,6′-dihydro-[2,4′-bipyridin]-1′ (2′H)-yl)methyl)-1-oxoisoindolin-2-yl)dihydropyrimidine-2,4(1H,3H)-dione] | B (80%< substrate protein remaining % ≤100%) | B (80%< substrate protein remaining % ≤100%) | A (0% ≤ substrate protein remaining % ≤80%) | A (0% ≤ substrate protein remaining % ≤80%) | B (80%< substrate protein remaining % ≤100%) | B (80%< substrate protein remaining % ≤100%) |
| O=C1CCN(N2Cc3cc(CN4CCC(c5ccnc(F)c5F)CC4)ccc3C2=O)C(=O)N1 [GT-06396, 1-(5-((4-(2,3-difluoropyridin-4-yl)piperidin-1-yl)methyl)-1-oxoisoindolin-2-yl)dihydropyrimidine-2,4(1H,3H)-dione] | B (80%< substrate protein remaining % ≤100%) | B (80%< substrate protein remaining % ≤100%) | B (80%< substrate protein remaining % ≤100%) | A (0% ≤ substrate protein remaining % ≤80%) | B (80%< substrate protein remaining % ≤100%) | B (80%< substrate protein remaining % ≤100%) |
| O=C1CCN(N2Cc3cc(CN4CC=C(c5ccnc(F)c5F)CC4)ccc3C2=O)C(=O)N1 [GT-06397, 1-(5-((2′,3′-difluoro-3,6-dihydro-[4,4′-bipyridin]-1(2H)-yl)methyl)-1-oxoisoindolin-2-yl)dihydropyrimidine-2,4(1H,3H)-dione] | A (0% ≤ substrate protein remaining % ≤80%) | B (80%< substrate protein remaining % ≤100%) | A (0% ≤ substrate protein remaining % ≤80%) | B (80%< substrate protein remaining % ≤100%) | A (0% ≤ substrate protein remaining % ≤80%) | B (80%< substrate protein remaining % ≤100%) |
